Measured values published in US10632115B2, “Use of a statin compound as local drug for treating obesity, diabetes, hypertension and hyperlipemia” (Peking University Third Hospital, priority 2015, dated 2020).

Legend:
diabetic rats = assay: Fasting blood glucose assay in diabetic rats after single intraosseous statin injection; format: in vivo, rat; conditions: 1-14 weeks after single intraosseous injection (fluvastatin 8 mg, atorvastatin 4 mg, rosuvastatin 2 mg); tail blood, glucose meter
Procedure: 36 three-month-old male SD rats (250-300 g) rats were accommodated for one week, in accordance with standard procedures of diabetic rat model, intraperitoneal injection of streptozotocin (STZ, Sigma Company) 40 mg/kg, the next day administration of high fat diet (purchased from Institute of Zoology, recipe: 68.5% base stock, lard 20%, 10% sucrose, 1% cholesterol and 0.5% porcine bile salts).
Two months later, all the rats were abnormally elevated blood glucose (above 19.5 mmol/L), indicate a successful model (Zhouguang Xing animal models of human disease replication methodology Shanghai Science and Technology Literature Press, 2008: 167-168 SHI Xin animal models of human disease People's Health Press, 2008: 301-305). […] Bone wax pinhole puncture closure avoiding leakage and sutured wounds.
After the rats were fasted 6 h, take one drop of blood (about 50 ul) from the rat tail and placed in the blood sugar test paper (Roche), 2 seconds later, fasting blood glucose were determinated by Roche glucose meter (ACCU-CHEK Performa). […]

type 2 diabetes patients = conditions: oral atorvastatin 10 mg/d for 16 weeks added to conventional antidiabetic; vs control group; cited from earlier work
[1] = oral atorvastatin 10 mg/day, simvastatin 40 mg/day; cited from earlier work

Question: For `CC(C)c1nc(N(C)S(C)(=O)=O)nc(-c2ccc(F)cc2)c1/C=C/[C@@H](O)C[C@@H](O)CC(=O)O` [rosuvastatin], which fasting blood glucose (diabetic rats) is on record?
Answer: significantly reduced

Question: What does the source list for `CC(C)c1c(C(=O)Nc2ccccc2)c(-c2ccccc2)c(-c2ccc(F)cc2)n1CC[C@@H](O)C[C@@H](O)CC(=O)O` [atorvastatin]?
Answer: blood glucose (type 2 diabetes patients): much better than the control group; effect on diabetes [1]: no effect; fasting blood glucose (diabetic rats): significantly reduced
